The record followed here is ChEMBL document CHEMBL1201862, “PubChem BioAssay data set” (2004).

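Grown in 96-well plates, cells were treated for 48 hours with each compound at five concentrations. Insufficient inhibition: endpoint recorded as highest concentration tested. GI50: concentration for 50% inhibition of growth.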 The source made the active and inactive calls. Rule as the data show it: active = GI50 up to about 1.1 µM and inactive = higher.

Some test systems named below: MCF7; NCI-H23; KM12; CCRF-CEM; SNB-19; HCT-15; MDA-MB-435; NCI-H522; NCI-H226; A549; SK-MEL-5; SK-MEL-2; RXF 393; EKVX; MDA-MB-231; TK-10; LOX IMVI; K562; SNB-75; Hs-578T.
Common to all, as to assay: NCI tumour cell line growth inhibition, 48 h

As to `CC(=O)n1[nH]c(=O)n(-c2ccc(Cl)cc2)c1=O`, the GI50 in the test with MCF7 is > 100 µM (inactive); in the test on NCI-H23, > 100 µM (inactive); in the test with KM12, > 100 µM (inactive); in the test on CCRF-CEM it was > 100 µM (inactive); in the test on SNB-19, > 100 µM (inactive); in the test on HCT-15, greater than 100 µM. The GI50 in the test on MDA-MB-435, in the test with NCI-H522, in the test on NCI-H226, in the test with A549, with SK-MEL-5 and with SK-MEL-2 was > 100 µM (inactive) throughout. Also, the GI50 in the test with RXF 393, in the test with EKVX, in the test on MDA-MB-231, in the test on TK-10, in the test with LOX IMVI and with K562 was > 100 µM (inactive) each time.
For the compound `CCC(C)[C@@H](NCc1ccccc1)[C@H](OCc1ccccc1)[C@@H]1COC(C)(C)O1` (some centres not stated), the GI50 was 21.2 µM (inactive) with MCF7; 32.6 µM (inactive) with SNB-75; 18.8 µM (inactive) with NCI-H23; 18.8 µM (inactive) in the test on KM12; 27.1 µM (inactive) in the test on CCRF-CEM; 17 µM (inactive) in the test on SNB-19. For the same compound, the GI50 was 15.7 µM in the test on HCT-15; 32.5 µM (inactive) in the test on MDA-MB-435; 21.1 µM (inactive) in the test on Hs-578T; 14.8 µM (inactive) in the test with NCI-H226; 25.4 µM (inactive) in the test on A549; 12.8 µM (inactive) in the test on SK-MEL-5. In addition, the GI50 with SK-MEL-2 was 18.2 µM (inactive); in the test on EKVX, 20.5 µM (inactive); in the test with MDA-MB-231, 17.1 µM (inactive); in the test on TK-10 it was 15.6 µM (inactive); in the test with LOX IMVI, 18 µM (inactive); in the test on K562, 20.3 µM (inactive).
With `N/C(=N\c1ccc(Cl)cc1)NS(=O)(=O)c1cc(Cl)c(Oc2ccc([N+](=O)[O-])cc2Cl)c(Cl)c1`, the GI50 in the test with SNB-75 was 17.1 µM (inactive); in the test with NCI-H23, 16.8 µM (inactive); in the test on KM12, 17.8 µM (inactive); with CCRF-CEM, 19.7 µM (inactive); in the test on SNB-19 it was 17.6 µM (inactive); in the test on HCT-15, 16.9 µM. For the same compound, the GI50 in the test on MDA-MB-435 was 18.4 µM (inactive); in the test with NCI-H522 it was > 100 µM (inactive); in the test on Hs-578T it was > 100 µM (inactive); in the test with NCI-H226, 17.1 µM (inactive); in the test with A549, 17.2 µM (inactive); with SK-MEL-5, 16.6 µM (inactive). Moreover, the GI50 with SK-MEL-2 is 20.5 µM (inactive); in the test on RXF 393, 15.2 µM (inactive); in the test with EKVX it was 16.9 µM (inactive); with MDA-MB-231 it was 16.6 µM (inactive); in the test on TK-10, 18.2 µM (inactive); in the test with LOX IMVI, 16.1 µM (inactive). In addition, the GI50 in the test on K562 was 18.7 µM (inactive).
As to `N#Cc1c(-c2ccccc2)c(/N=N/c2ccc(Cl)cc2)c(=O)n2c1[nH]c1ccccc12`, the GI50 was > 100 µM (inactive) in the test with MCF7; 71 µM (inactive) with SNB-75; > 100 µM (inactive) in the test on NCI-H23; 44.2 µM (inactive) with KM12; > 100 µM (inactive) in the test on CCRF-CEM; > 100 µM (inactive) in the test on SNB-19. The GI50 was greater than 100 µM with HCT-15; > 100 µM (inactive) in the test on MDA-MB-435; 79.4 µM (inactive) with NCI-H522; 65.9 µM (inactive) in the test with NCI-H226; > 100 µM (inactive) in the test with A549; 55.8 µM (inactive) in the test on SK-MEL-5. Besides, the GI50 in the test on SK-MEL-2 was > 100 µM (inactive); in the test with RXF 393 it was 42.1 µM (inactive); in the test with EKVX, 71.4 µM (inactive); in the test with MDA-MB-231, > 100 µM (inactive); with TK-10 it was 23.3 µM (inactive); with LOX IMVI it was > 100 µM (inactive).
On to `CC(C)CCc1n[nH]c(=O)n1/N=C\c1ccccc1`, for which the GI50 in the test on SNB-75 was > 100 µM (inactive); with NCI-H23, > 100 µM (inactive); with KM12, > 100 µM (inactive); in the test with CCRF-CEM it was > 100 µM (inactive); in the test on SNB-19 it was > 100 µM (inactive); in the test with HCT-15, greater than 100 µM. Besides, the GI50 in the test on MDA-MB-435 was > 100 µM (inactive); in the test with NCI-H522 it was 85.7 µM (inactive); in the test on Hs-578T, > 100 µM (inactive); in the test with NCI-H226, > 100 µM (inactive); in the test on A549, > 100 µM (inactive); with SK-MEL-5 it was > 100 µM (inactive). Besides, the GI50 is 93.1 µM (inactive) in the test on SK-MEL-2; > 100 µM (inactive) with RXF 393; > 100 µM (inactive) in the test with EKVX; > 100 µM (inactive) in the test with MDA-MB-231; > 100 µM (inactive) in the test on TK-10; > 100 µM (inactive) in the test with LOX IMVI. The GI50 in the test with K562 was 83 µM (inactive).
Regarding `O=[N+]([O-])c1cn[n+]([O-])c2ccccc12`, the GI50 was 10.7 µM (inactive) with MCF7; 14.7 µM (inactive) in the test with NCI-H23; 5.36 µM (inactive) in the test on KM12; 2.74 µM (inactive) in the test with CCRF-CEM; 11.5 µM (inactive) in the test with SNB-19; 2.06 µM with HCT-15. Besides, the GI50 with MDA-MB-435 was 13.8 µM (inactive); with Hs-578T it was 13.8 µM (inactive); in the test with NCI-H226 it was 7.36 µM (inactive); in the test with A549, 12 µM (inactive); in the test on SK-MEL-5, 13.2 µM (inactive); in the test on EKVX, 12.9 µM (inactive). Also, the GI50 is 13.2 µM (inactive) in the test with MDA-MB-231, 12.9 µM (inactive) in the test with TK-10 and 6.67 µM (inactive) in the test on LOX IMVI.
With `CC1(C)OC(=O)N(c2ccccc2)C12C=Cc1cc([N+](=O)[O-])ccc1O2` (configuration not stated), the GI50 is 43.2 µM (inactive) in the test with SNB-75; 36.2 µM (inactive) with NCI-H23; 56.6 µM (inactive) in the test on KM12; 29.1 µM (inactive) in the test on CCRF-CEM; 35.5 µM (inactive) in the test on SNB-19; 48.8 µM with HCT-15. Moreover, the GI50 is 20 µM (inactive) with MDA-MB-435; 25.8 µM (inactive) in the test on NCI-H522; 19.5 µM (inactive) in the test with Hs-578T; 44 µM (inactive) in the test on NCI-H226; 53.2 µM (inactive) with A549; 36.4 µM (inactive) in the test with SK-MEL-5. In addition, the GI50 was 33.4 µM (inactive) in the test on SK-MEL-2; 60.3 µM (inactive) in the test with RXF 393; 23.8 µM (inactive) in the test on EKVX; 19.4 µM (inactive) with MDA-MB-231; 39.4 µM (inactive) in the test with TK-10; 48.2 µM (inactive) with LOX IMVI. Moreover, in the test with K562, the GI50 is 29 µM (inactive).
Turning to `COc1ccc(N2C(=O)c3cccnc3S2(=O)=O)cc1`, the GI50 in the test with MCF7, in the test with SNB-75, in the test on NCI-H23, in the test with KM12, in the test on CCRF-CEM and in the test with SNB-19 was > 100 µM (inactive) throughout. For the same compound, the GI50 with HCT-15 is greater than 100 µM; with MDA-MB-435, > 100 µM (inactive); in the test with NCI-H522, > 100 µM (inactive); in the test with NCI-H226, > 100 µM (inactive); with A549 it was > 100 µM (inactive); with SK-MEL-2, > 100 µM (inactive). Moreover, the GI50 in the test with RXF 393, in the test with EKVX, with MDA-MB-231 and with K562 was > 100 µM (inactive) each time.
